From patent US20200368322A1, “METHODS OF IDENTIFYING AND USING AGENTS FOR TREATING DISEASES ASSOCIATED WITH INTESTINAL BARRIER DYSFUNCTION” (Yeda Research and Development Co. Ltd., priority 2018, published 2020)
Entries after “also recorded” stand apart in the source; their conditions may differ. No end group written: not given here.

B1: Chemokine ligand 3 (protein, UniProt P10147 24-92, looked up)
C-C motif chemokine 3: SLAADTPTACCFSYTSRQIPQNFIADYFETSSQCSKPGVIFLTKRSRQVCADPSEEWVQKYVSDLELSA
B2: IL-22: human non-inflammatory cytokine (protein, UniProt Q9GZX6 34-179, looked up)
Interleukin-22: APISSHCRLDKSNFQQPYITNRTFMLAKEASLADNNTDVRLIGEKLFHGVSMSERCYLMKQVLNFTLEEVLFPQSDRFQPYMQEVVPFLARLSNRLSTCHIEGDDLHIQRNVQKLKDTVKKLGESGEIKAIGELDLLFMSLRNACI
B3: Fas ligand (protein, UniProt P48023 130-281, looked up)
Tumor necrosis factor ligand …: QIGHPSPPPEKKELRKVAHLTGKSNSRSMPLEWEDTYGIVLLSGVKYKKGGLVINETGLYFVYSKVYFRGQSCNNLPLSHKVYMRNSKYPQDLVMMEGKMMSYCTTGQMWARSSYLGAVFNLTSADHLYVNVSELSLVNFEESQTFFGLYKL
B4: Chemokine ligand 23 (protein, UniProt P55773 22-120, looked up)
C-C motif chemokine 23: RVTKDAETEFMMSKLPLENPVLLDRFHATSADCCISYTPRSIPCSLLESYFETNSECSKPGVIFLTKKGRRFCANPSDKQVQVCMRMLKLDTRIKTRKN

Experiments:
[1] = tested on: tight junctions of Caco2 cells; test: Human secreted molecules library screen for tight junction modulators; format: cell-based; conditions: Caco2, 24 hours; ng/ml: TNFa 50, Il-15 25, CCL-20 50, CCL-23 50, FGF-1 25, FGF-10 100, BMP-10 50, UTS-2 10, UCN-1 20, EPO 10, UCN-3 20, IL-21 30, CCL-3 40, TIMP-2 100, FasLG 10
Experimental: (§1) CaCo-2 cells were purchased from ATCC. Cells were routinely grown in regular tissue culture medium (DMEM, 10% FCS, penicillin/streptomycin, GlutaMAX). For experiments with differing glucose concentrations, cells were routinely cultured in low-glucose DMEM (1 g/l glucose). Cells were seeded onto 96-well glass-bottom plates coated with either fibronectin or collagen 70 000 cells/well and allowed to grow for 24 hours to form confluent monolayer before indicated treatments.
(§2) Cell images were segmented using Morphological Segmentation ImageJ plug-in and junction tortuosity was calculated as a ratio between junction length and Euclidian distance between its ends.
A protein library, consisting of 295 human secreted proteins was used for identification of potential modulators of the barrier function of human intestinal epithelial cells.

[2] = tested on: tight junctions of Caco2 cells; test: Caco2 tight junction morphology (cingulin or ZO-1 staining, tortuosity); format: cell-based, human; conditions: Caco2 cells
Experimental: as §1
For high resolution images of manually selected representative fields, a DeltaVision wide field fluorescent microscope (GE Healthcare) equipped with 40×UPlanFLN or 60×/1.42 PlanApo N oil objective (Olympus) was used. For multi-well plate scanning, the following automated imaging stations were used: DeltaVision microscope with plate scanning regiment, Hermes imaging station (IDEA bio-Medical) or ImagExpress microXL imaging station (Molecular Devices) equipped by 40× air objectives. In all cases in order to cover the curvature of apical surface of epithelial monolayer 5 μm thick z-stack was acquired around the tight junction plane (identified by best focus algorithm) and resulting image was generated as a maximum projection of all optical sections.
as §2

Molecule | TJ morphology (cingulin) in secreted molecules screen [1] | also measured
Chemokine ligand 20 [CCL-20] | changes in TJ morphology similar to previously observed upon treatment with known pro-inflammatory mediators | –
Fibroblast growth factor 1 [FGF-1] | changes in TJ morphology similar to previously observed upon treatment with known pro-inflammatory mediators | –
IL1-b: cytokine, known pro-inflammatory IBD mediator | – | tight junctions morphology (cingulin) ([2]; 50 ng/ml TNFa, 30 ng/ml IL1-b, 100 ng/ml LPS): significant alteration in tight junctions morphology
Interleukin-15 [Il-15] | changes in TJ morphology similar to previously observed upon treatment with known pro-inflammatory mediators | –
Tissue metalloprotease inhibitor 2 [TIMP-2] | improvement of TJ morphology in comparison to non-treated control | –
Urocortin 1 (DNPSLSIDLTFHLLRTLLELARTQSQRERAEQNRIIFDSV; ends and bridges not checked; UniProt P55089 83-122, looked up) [UCN-1] | changes in TJ morphology similar to previously observed upon treatment with known pro-inflammatory mediators | –
Urocortin 3 (FTLSLDVPTNIMNLLFNIAKAKNLRAQAAANAHLMAQI; ends and bridges not checked; UniProt Q969E3 120-157, looked up) [UCN-3] | changes in TJ morphology similar to previously observed upon treatment with known pro-inflammatory mediators | –
Urotensin 2 (ETPDCFWKYCV; ends and bridges not checked; cysteine pairing not given here; UniProt O95399 114-124, looked up) [UTS-2] | changes in TJ morphology similar to previously observed upon treatment with known pro-inflammatory mediators | –
B1 | improvement of TJ morphology in comparison to non-treated control | –
B2 | – | tight junction morphology on co-treatment with pro-inflammatory agents ([2]; 100 ng/ml IL-22 plus TNFa, IL1-b or LPS): blocked; also recorded: completely restored normal tight junction morphology
B3 | improvement of TJ morphology in comparison to non-treated control | –
B4 | changes in TJ morphology similar to previously observed upon treatment with known pro-inflammatory mediators | –
